Results from patent US4464396A, “4-[N-(Hydroxybenzyl)aminomethyl]cyclohexane-1-carboxylic acid” (Kureha Kagaku Kogyo Kabushiki Kaisha, priority 1981, dated 1984).

How the values were obtained:
[1] = tested on: Rat's polynuclear leukocyte migration; assay: Inhibitory effect on polynuclear leukocyte migration (Boyden method); assay type: cell-based; conditions: rat polynuclear leukocytes, read-out: Concentration of 50% inhibition of polynuclear leukocyte migration IC50
Excerpt: (1) Examination for inhibitory effect on polynuclear leukocyte migration:
Rat's polynuclear leukocyte migration was examined by the Boyden method.

[2] = Acute toxicity, peroral administration of aqueous solution to mice; conditions: mouse, in vivo, po, female JCL-ICR mice 5 to 6 weeks old
Excerpt: (2) Examination for acute toxicity:
Acute toxicity was examined by administering perorally an aqueous solution of each Specimen to female JCL-ICR mice 5 to 6 weeks after their birth.

SMILES	IC50 [1] [µM]	LD50 [2] [mg/kg]
O=C(O)[C@H]1CC[C@H](CNCc2ccc(O)c(O)c2)CC1 [II]	32	> 3000
COc1ccc2c(c1)c(CC(=O)O)c(C)n2C(=O)c1ccc(Cl)cc1 [III]	240	
O=C(O)[C@H]1CC[C@H](CNCc2ccccc2O)CC1 [I]	340	> 3000
